Measured values reported in patent US20150093821A1, “BIODEGRADABLE POLYURETHANES AND USE THEREOF” (CARNEGIE MELLON UNIVERSITY, priority 2003, published 2015).

Legend:
[1] = test system: type I collagen of GFP-MBMC; experiment: Western blot analysis for type I collagen; type: cell-based, mouse; details: two weeks of culture
Experimental: After two weeks of culture, the cells were harvested with Trypsin, subjected to a centrifuge and washed once with PBS. Thereafter, the lysis buffer/CLAP solution was added to the cells (Lysis buffer: 0.187 g HEPE, 0.4235 g NaCl, 0.001 g MgCl2 and 0.19 g EGTA dissolved in 50 ml PBS. CLAP solution: 4 μl each of chymostatin, leupeptin, antipain and pepstatin A in 100 μl PBS. Lysis buffer/CLAP solution: 100 μl CLAP solution added to 6.6 ml Lysis buffer). To assure complete rupture of the cells, the tubes were stored at −20° C. for 12 hrs. Total protein concentration was quantified using the BCA protein assay kit (Fisher Scientific, USA), which measured the light absorbance at 562 nm verses a standard curve on a microplate reader.
The protein obtained as described above was re-suspended in Laemmli sample buffer, followed by protein separation on an SDS-10% polyacrylamide gel. Western blotting was performed as described previously. […]
To ensure that equal amount of total protein was loaded to the membrane, GAPDH (glycerealdehyde-3-phosphate dehydrogenase) was detected using rat-anti-mouse GAPDH antibody (ICN Biochemicals, USA) followed by peroxidase-conjugated rabbit-anti-rat IgG antibody (E.Y. Laboratories, Inc. USA). […] Molecular weights of the proteins were determined using prestained molecular weight standards (14,300-200,000 molecular weight range; GIBCO BRL). […]

[2] = test system: collagen type I in GFP-MBMC; experiment: Collagen type I production (Sirius Red F3B); type: cell-based, mouse; details: after 7 days culture, P<0.005
Experimental: Soluble calf skin collagen type I was used for the standard curves run with each assay (see FIG. 14). […] Three individual experiments were performed for type I collagen. The results were presented as the mean±standard deviation (n=3).

[3] = test system: alkaline phosphatase activity of mouse bone cells (OPC); experiment: Alkaline phosphatase activity of OPC with bioactive reagents or polymer foams; type: cell-based; details: 4 weeks, OD at 405 nm, medium with or without polymer, FIG. 5
Experimental: Bioactive polymers containing covalently bound dexamethasone and β-glycerophosphate were also synthesized and studied for potential use as bone scaffolds. In several studies, mouse bone cells (OPC) (9.6×10^4/well) were cultured in a 6-well tissue culture plate without polymer foam (blank column) with Dulbecoo's modified Eagle's medium only (DMEM); with 5 mM β-glycerophosphate (β-GP); with 100 nM dexamethasone (Dex); 50 μM ascorbic acid (Vc); with 50 μM ascorbic acid and 5 mM β-glycerophosphate (Vc+β-GP); with 50 μM ascorbic acid and 100 nM dexamethasone (Vc+Dex); with 50 μM ascorbic acid, 100 nM dexamethasone and 5 mM β-glycerophosphate (Vc+Dex+β-GP) for 4 weeks.
The same cells were cultured in a 6-well plate with the LDI-PEG400-glucose polymer (red column) using DMEM only. The polymer foams were synthesized with lysine ethyl ester diisocyanate (LDI), glucose and PEG only (DMEM); with LDI, glucose, PEG and β-glycerophosphate (β-GP); with LDI, glucose, PEG and dexamethasone (Dex); with LDI, glucose, PEG and ascorbic acid (Vc); with LDI, glucose, PEG, ascorbic acid and β-glycerophosphate (Vc+β-GP); with LDI, glucose, PEG, ascorbic acid and dexamethasone (Vc+Dex); and with LDI, glucose, PEG, ascorbic acid, 3-glycerophosphate and dexamethasone (Vc+Dex+β-GP). […] The alkaline phosphatase activity was determined by the OD at 405 nm in the medium with or without polymer. […]

Row | SMILES | type I collagen secreted (Western blotting) [1] | concentration of collagen type I relative to LDI-glycerol-PEG scaffold or tissue culture plate [2] | alkaline phosphatase activity of OPC [3]
1 | O=C1O[C@H]([C@@H](O)CO)C(O)=C1O [ascorbic acid] | higher concentrations | two times higher | significantly increased
2 | O=P(O)(O)OC(CO)CO [β-glycerophosphate] | – | – | more moderately
